Results as given in patent EP0711558A1, “Compositions for topical application to skin, hair and nails” (UNILEVER PLC, priority 1994, dated 1996).
Where two headings read alike, the source gives them in different places. Blank lines part the entries; values can stand above or below the molecule they belong to.

Assays:
[1] = system: Normal human keratinocytes; experiment: Rate of DNA synthesis in keratinocytes (3H-thymidine incorporation; a decrease indicates growth inhibition / differentiation); assay type: cell-based; details: for activity at 3 µM: 3 μM lipid alone, read-out: DNA synthesis, 0 nM 25-OH-D3; for cell growth inhibition: Table 1 (image)
Protocol: Methodology Used for Determining the Rate of DNA Synthesis in Keratinocytes After Treatment With Various Actives
• 1. Normal human keratinocytes isolated from neonatal foreskins by trypsin treatment were grown in DME medium/10% fetal calf serum in the presence of irradiated 3T3 mouse fibroblasts for establishing dividing keratinocyte colonies. Keratinocytes were grown under the above condition until their third passage. • 2. For the experiments, third passage keratinocytes were plated into a serum-free keratinocyte growth medium (KGM; obtained from Clonetics Corporation, San Diego, CA) containing 0.15 mM calcium. 20,000 to 30,000 cells were plated into each well of 24 well cell culture plates and grown for 5 days, until the cells reach about 80% confluence. • 3. Medium was changed to fresh medium and the various test materials were added to the medium from an ethanolic stock solution (10 AM). The final ethanol concentration in the cultures was kept below 0.2%. Control cultures received no tested material but were dosed with 0.2% ethanol. Each compound or combination was tested in three separate wells. By 4PM, 1 uCi of ³H-thymidine (Amersham Corp., Sp activity 40 Ci/mmol) was added to the 1 ml medium in each well. The cells were incubated overnight and 24 hours later (10 AM next day) the amount of ³H-thymidine associated with the cellular DNA of keratinocytes was assessed as described below. • 4. The medium was aspirated, and the wells washed with 1 ml phosphate-buffered saline. The DNA and proteins of the cells in the plate were then precipitated by adding 1 ml of ice-cold 10% trichloroacetic acid (TCA). The plates were left on ice for 30 minutes to complete the precipitation process. TCA was then aspirated and each well was then washed four times with 5% TCA. The plates were then dried on a filter pad and the cells in the wells were dissolved in 0.5 ml of 0.1 N sodium hydroxide. The sodium hydroxide was then neutralized using 0.1 N hydrochloric acid and the solution (1 ml total volume) was then transferred to a scintillation vial. 100 ul samples from each vial were used for protein assay using BCA protein assay reagent obtained from Pierce Chemical Company. 8 ml of a scintillation fluid (Ecolume) was added to the rest of the solution in the vial, and the vials were counted in a scintillation counter to determine the amount of radioactivity in each vial. The DNA synthesis rate was then calculated as cpm ³H thymidine incorporated into total cellular DNA/microgram of cell protein for each individual well. Mean and standard deviation for each group was also calculated. […] All lipids listed in Tables 1-5 below were synthesized in-house. 25-OH-D₃ and 1,25-(OH)₂D₃ were obtained from Hoffman La Roche. Vitamin D ₃ was obtained from Sigma. • 6.

[2] = system: Normal human keratinocytes; experiment: Vitamin D3 metabolites' uptake by keratinocytes (cell associated radioactivity); assay type: in vitro ADME; details: for cell associated radioactivity: 60 picomolar; for rate of uptake by keratinocytes: Table 6, in words
Protocol: Vitamin D₃ Metabolites' Uptake:
Normal human keratinocytes were grown to confluence in Keratinocyte growth medium (KGM) containing 0.15 mM calcium. Medium was changed to fresh medium. The cells were then incubated in duplicate with 10,000 cpm (60 picomolar, or 25 picogram/ml medium) of 25-OH-D₃ or 1,25-(OH) ₂D₃ for various times (0 to 240 minutes). At different time intervals indicated in the Table below, the medium of appropriate wells were aspirated, and the wells were washed three times with a 0.2% bovine serum albumin solution in 50 mM Tris/0.15 M sodium chloride buffer pH 7.4. After the wash the cells in the wells were dissolved in 0.1 N sodium hydroxide, neutralized with 0. 1 N hydrochloric acid, mixed with 5 ml of scintillation fluid (Ecolume) and counted in a beta counter. The amount of cpm associated with the cells was calculated as the percent of total cpm added for each time point studied. Data in the table is expressed as cell associated radioactivity as % of total added. Each reported result is a mean of duplicate determinations.

keratinocytes = details: as shown by Bikle et al.; cited from earlier work
[3] = Homo sapiens, Keratinocyte, 24 h, Table 5
[4] = 100 nM, alone, 25-OH-D3 in two experiments, 1,25-(OH)2D3 in one experiment
[5] = 1000 nM, compound alone, consistently observed only at this concentration
[6] = 0 minutes, mean of duplicate determinations

SMILES: C=C1CC[C@H](O)C/C1=C/C=C1\CCC[C@]2(C)[C@@H]([C@H](C)CCCC(C)C)CC[C@@H]12 [vitamin D3, Vitamin D₃]
- growth inhibition ([1]; vitamin D3 employed alone (Table 4)): does not show statistically significant growth inhibition
- synergy with the ceramide in inhibiting keratinocyte growth ([1]; with ceramide of Formula A, even at 100 nM vitamin D3): did not show any synergy

SMILES: CCCCCCCCCCCCN(CC(O)CO)C(=O)C(O)CCCCCC (stereo not drawn) [neoceramide (Formula M), N-(2,3-dihydroxypropyl)-N-(dodecyl)-2-hydroxyoctnamide]
- activity at 3 µM [1, 3]: 81.5 ± 6.4%

SMILES: C=C1/C(=C\C=C2/CCC[C@]3(C)[C@@H]([C@H](C)CCCC(C)(C)O)CC[C@@H]23)C[C@@H](O)C[C@@H]1O [1,25-(OH)2D3, 1,25-dihydroxycholecalciferol]
- cell growth inhibition [1, 4]: cell growth inhibition was also observed
- cell growth inhibition [1, 5]: statistically significant cell growth inhibition
- cell associated radioactivity [2, 6]: 0.8 % of total added
- cell associated radioactivity ([2]; 2 minutes): 2.7 % of total added
- cell associated radioactivity ([2]; 5 minutes): 4.2 % of total added
- cell associated radioactivity ([2]; 10 minutes): 13.0 % of total added
- cell associated radioactivity ([2]; 15 minutes): 10.0 % of total added
- cell associated radioactivity ([2]; 30 minutes): 20.0 % of total added
- cell associated radioactivity ([2]; 60 minutes): 15.6 % of total added
- cell associated radioactivity ([2]; 120 minutes): 26.2 % of total added
- cell associated radioactivity ([2]; 240 minutes): 30.8 % of total added
- rate of uptake by keratinocytes [2]: rapidly taken up
- catabolism by keratinocytes (keratinocytes): catabolized to inactive metabolites rapidly

SMILES: CCCCCCCCCCCCCCCCN(CC(O)CO)C(C)=O (stereo not drawn) [neoceramide (Formula F), N-(2,3-dihydroxypropyl)-N-(hexadecyl)ethanamide]
- activity at 3 µM [1, 3]: 81.1 ± 4.9%

SMILES: CCCCCCCCCCCCCCCCOCC(O)CN(CCO)C(C)=O (stereo not drawn) [pseudoceramide (Formula E)]
- activity at 3 µM [1, 3]: 95.9 ± 22%

SMILES: CCCCCCCCCCCCCCCCN(CC(O)CO)C(=O)CCCCC (stereo not drawn) [neoceramide (Formula G), N-(2,3-dihydroxypropyl)-N-(hexadecyl)hexanamide]
- activity at 3 µM [1, 3]: 103 ± 12.3%

- cell associated radioactivity [2, 6]: 2.5 % of total added
- cell associated radioactivity ([2]; 2 minutes): 3.2 % of total added
- cell associated radioactivity ([2]; 5 minutes): 0.3 % of total added
- cell associated radioactivity ([2]; 10 minutes): 3.4 % of total added
- cell associated radioactivity ([2]; 15 minutes): 8.3 % of total added
- cell associated radioactivity ([2]; 30 minutes): 8.1 % of total added
- cell associated radioactivity ([2]; 60 minutes): 6.2 % of total added
- cell associated radioactivity ([2]; 120 minutes): 6.8 % of total added
- cell associated radioactivity ([2]; 240 minutes): 9.8 % of total added
- rate of uptake by keratinocytes [2]: substantially slower rate
SMILES: C=C1CC[C@H](O)C/C1=C/C=C1\CCC[C@]2(C)[C@@H]([C@H](C)CCCC(C)(C)O)CC[C@@H]12 [Formula 25-OH-D3, 25-hydroxycholecalciferol]
- activity at 0.001 µM ([1]; Homo sapiens, Keratinocyte, 24 h, 1 nM 25-OH-D3, no ceramide, read-out: DNA synthesis, 25-OH-D3 alone): 99.3 ± 1.91%
- activity at 0.01 µM ([1]; Homo sapiens, Keratinocyte, 24 h, 10 nM 25-OH-D3, no ceramide, read-out: DNA synthesis, 25-OH-D3 alone): 97.2 ± 5.92%
- activity at 0.1 µM ([1]; Homo sapiens, Keratinocyte, 24 h, 100 nM 25-OH-D3, no ceramide, read-out: DNA synthesis, 25-OH-D3 alone): 86.5 ± 5.47%
- activity at 1 µM ([1]; Homo sapiens, Keratinocyte, 24 h, 1000 nM 25-OH-D3, no ceramide, read-out: DNA synthesis, 25-OH-D3 alone): 67.8 ± 5.92%
- minimal effective concentration ([1]; Homo sapiens, Keratinocyte, 24 h, 25-OH-D3 employed alone, read-out: concentration of 25-OH-D3 at which inhibition of keratinocyte growth was observed): 0.1 to 1 µM
- activity at 0.01 µM ([1]; Homo sapiens, Keratinocyte, 24 h, Table 4, 10 nM vitamin D3 or its metabolite, no ceramide, read-out: DNA synthesis, No ceramide): 95.3 ± 6.9%
- activity at 0.1 µM ([1]; Homo sapiens, Keratinocyte, 24 h, Table 4, 100 nM vitamin D3 or its metabolite, no ceramide, read-out: DNA synthesis, No ceramide): 88.5 ± 7.2%
- activity at 0.01 µM ([1]; Homo sapiens, Keratinocyte, 24 h, Table 5, 10 nM 25-OH-D3, No ceramide, read-out: DNA synthesis, 10 nM 25-OH-D3): 95.3 ± 6.9%
- activity at 0.1 µM ([1]; Homo sapiens, Keratinocyte, 24 h, Table 5, 100 nM 25-OH-D3, No ceramide, read-out: DNA synthesis, 100 nM 25-OH-D3): 88.5 ± 7.2%
- cell growth inhibition [1, 4]: cell growth inhibition was also observed
- cell growth inhibition [1, 5]: statistically significant cell growth inhibition

SMILES: CCCCCCCCCCCCCCC(O)CN(CCO)C(=O)CCCCC (stereo not drawn) [pseudoceramide (Formula D)]
- activity at 3 µM [1, 3]: 62 ± 12.8%

SMILES: CCCCCCCCCCCCCCCCN(CC(O)CO)C(=O)C(O)CCCCCC (stereo not drawn) [neoceramide (Formula H), N-(2,3-dihydroxypropyl)-N-(hexadecyl)-2-hydroxyoctanamide]
- activity at 3 µM [1, 3]: 85.7 ± 0.9%
